Experimental data from patent publication US8759546B2, “Physical nano-complexes for preventing and treating cancer and method for manufacturing the same” (Gold Nanotech Inc., priority 2012, dated 2014).

What was measured:
[1] = tested on: MBT-2 cells; assay: cell cycle of MBT-2 cells; type: cell-based
Description: Following, the mechanism of the EGCG and nanogold mediated cell apoptosis was investigated. Refer to FIG. 7 for a table of the cell cycle of MBT-2 cell treated by various concentrations of EGCG and nanogold. […] The MBT-2 cells otherwise underwent G0/G1 arrest when the doses of EGCG (50 μM) and nanogold (2 ppm) were increased.

[2] = tested on: African green monkey kidney cells (Vero cell); assay: viability of Vero cells at 48 hour post-treatment; type: cell-based; settings: in the presence of EGCG or nanogold
Description: (§1) Firstly, to evaluate the tumor cytotoxicity of EGCG and/or nanogold, we examined viabilities of bladder cancer cells (MBT-2) and African green monkey kidney cells (Vero cell acts as a normal cell) at 48 hour post-EGCG or -nanogold treatment. Referring to FIG. 3, which is a schematic diagram of the cell viability of Vero cells and MBT-2 cells under different treating concentration of EGCG and nanogold. […] Refer to FIG. 4 for a schematic diagram of the concentrations of EGCG and nanogold mediated the 50% of cell growth inhibition of Vero cell and MBT-2 cell (IC50). […] In contrast, the Vero cell numbers were not changed in the presence of EGCG or nanogold.

[3] = superoxide radical scavenging effect; type: biochemical; settings: compared to vitamin E alone
Excerpt: Refer to FIG. 2 for a schematic diagram of the anti-oxidant effect of the EGCG-nanogold complexes.

[4] = tested on: MBT-2 cells; assay: apoptosis detection by Annexin-V and PI staining, flow cytometry; type: cell-based; settings: in 48 hours
Excerpt: Cell apoptosis features some morphological alterations, such as chromatin condensation, membrane blebbing, inter-nucleosomal degradation of DNA, and apoptotic body formation. Previous study reported that EGCG can induce apoptosis via the PI3K/Akt pathway and Bcl-2 family proteins in T24 human bladder cancer cells. […] The cells in test were subjected to flow cytometry analysis, whereby apoptotic bodies can be detected by Annexin-V and PI staining Refer to FIG. […]

[5] = tested on: caspase-3 and -7; assay: Caspase-3/7 activity in MBT-2 cells; type: cell-based; settings: 12 and 24 hours treatment
Description: To assure that the EGCG and nanogold mediated apoptosis are triggered by the caspase effectors, we then examined expressions of the apoptosis-dependent enzymes caspase-3 and -7. Refer to FIG. 8 for a schematic diagram of Caspase-3/7 activity after EGCG and/or nanogold treatment for 12 and 24 hours.

[6] = tested on: bladder cancer cells (MBT-2); assay: viability of MBT-2 cells at 48 hour post-treatment; type: cell-based
Description: as §1

epigallocatechin-3-gallate [EGCG]
cell cycle arrest ([1]; increased doses: EGCG 50 μM, nanogold 2 ppm): G0/G1 arrest
cell cycle arrest ([1]; lower doses): arrested in the S phase
Vero cell numbers [2]: not changed
superoxide radical scavenging activity [3]: significant superoxide radical scavenging activity
percentage of Annexin-V-positive cells [4]: 16.6%
caspase-3 and -7, fold increase versus the vehicle-alone controls [5]: 2.42±0.43 fold
MBT-2 cell numbers, % of the control ([6]; EGCG and nanogold 2 ppm, combined or alone): 49.7%
viability of MBT-2 cells ([6]; different treating concentrations): reduce the viability of MBT-2 cells in a concentration-dependent manner
